Key:
[1] = biological target: T1, human dopamine (DA) transporter (DAT) (Homo sapiens, UniProt Q01959); experiment: Dopamine transporter binding assay ([3H]GBR 12935, CEREP); settings: HCl salts
T1 construct: host or cells: CHO cells, cell membrane homogenates
Experimental: Transporter Binding and Cellular Uptake. All described monoamine transporter binding studies as well as cellular uptake assays were performed in duplicate by CEREP (Celle l'Evescault, France) and are described below. Further details of all assays performed may be accessed at the CEREP web site (world-wide-web at cerep.com). Cellular-based assays were conducted to provide complementary in vitro functional measures to complement the standard transporter assays as well as to provide direct comparisons of the homologs IPH with MPH with regard to DA, NE, and 5-HT uptake in synaptosomal preparations. […]
Dopamine Transporter Binding Assay. Evaluation of the affinity of both compounds for the human dopamine (DA) transporter (DAT) in transfected Chinese Hamster Ovary (CHO) cells was determined in a validated radioligand binding assay. […] Nonspecific binding was determined in the presence of 10 μM N-[1-(Benzo[b]thien-2-yl-cyclohexyl)] piperidine (BTCP). […] The filters were then dried and measured for radioactivity with a scintillation counter (TopCount, Packard) using a liquid scintillation cocktail (Microscint 0, Packard). The results of DAT binding experiments as well as the other transporter assays described in the following sections were expressed as a percent inhibition of the control radioligand specific binding. […]

[2] = biological target: T2, human norepinephrine (NE) transporter (NET) (Homo sapiens, UniProt P23975); experiment: Norepinephrine transporter binding assay ([3H]nisoxetine, CEREP)
T2 construct: host or cells: CHO cells, cell membrane homogenates
Experimental: (§1) Transporter Binding and Cellular Uptake. All described monoamine transporter binding studies as well as cellular uptake assays were performed in duplicate by CEREP (Celle l'Evescault, France) and are described below. Further details of all assays performed may be accessed at the CEREP web site (world-wide-web at cerep.com). Cellular-based assays were conducted to provide complementary in vitro functional measures to complement the standard transporter assays as well as to provide direct comparisons of the homologs IPH with MPH with regard to DA, NE, and 5-HT uptake in synaptosomal preparations.
Norepinephrine Transporter Binding Assay. Evaluation of the affinity of the two compounds for the human norepinephrine (NE) transporter (NET) in transfected CHO cells was determined in a radioligand assay analogous to the procedures described for the DAT assay. Cell membrane homogenates were incubated for 90 min at 4° C. with 1 nM [^3H]nisoxetine in the absence or presence of each test compound in a standard buffer solution. Nonspecific binding was determined in the presence of 1 μM of desipramine. Following incubation, the samples were filtered rapidly under vacuum and rinsed several times with a buffer solution. The filters were then dried and radioactivity counts were obtained. The results are expressed as percent inhibition of the control radioligand specific binding. The standard reference compound was the tricyclic antidepressant (TCA) protriptyline, which was tested in each experiment at several concentrations to generate a competition curve from which its IC50 was calculated.

[3] = system: NE uptake, synaptosomes prepared from the rat hypothalamus; experiment: Norepinephrine uptake into synaptosomes; assay type: cell-based
Experimental: as §1

hCES1 = biological target: T3, hCES1 (Homo sapiens, UniProt P23141); experiment: Transesterification potential in the presence of ethanol, s9 fraction of hCES1-transfected cells; settings: for effect of ethanol on formation of the hydrolytic product RA: hCES1 s9; for EPH formation with ethanol when hCES1 was not present: incubation with ethanol, no hCES1
T3 sequence (P23141 18-567): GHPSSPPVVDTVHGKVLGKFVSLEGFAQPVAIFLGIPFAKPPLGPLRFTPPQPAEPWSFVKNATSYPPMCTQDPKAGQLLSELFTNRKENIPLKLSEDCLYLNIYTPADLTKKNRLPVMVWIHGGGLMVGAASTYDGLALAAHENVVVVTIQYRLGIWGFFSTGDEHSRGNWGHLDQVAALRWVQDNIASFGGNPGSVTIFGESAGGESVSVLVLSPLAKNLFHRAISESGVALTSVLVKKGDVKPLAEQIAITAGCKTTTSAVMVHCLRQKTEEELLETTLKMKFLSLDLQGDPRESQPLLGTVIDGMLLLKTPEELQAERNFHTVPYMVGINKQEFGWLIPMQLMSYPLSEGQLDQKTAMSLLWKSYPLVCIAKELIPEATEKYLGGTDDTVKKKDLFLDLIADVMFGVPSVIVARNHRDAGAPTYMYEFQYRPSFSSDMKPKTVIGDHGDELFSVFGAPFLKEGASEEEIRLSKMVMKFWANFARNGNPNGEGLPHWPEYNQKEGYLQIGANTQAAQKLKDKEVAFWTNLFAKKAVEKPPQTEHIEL
Experimental: FIG. 3—Transesterification potential of isopropylphenidate (IPH) versus methylphenidate (MPH) by s9 fractions of CES1 transfected cells in the presence of ethanol. MPH (1 mM) or IPH (1 mM) was incubated with s9 fractions of hCES1 overexpressing cells (2 mg/ml) in the presence or absence of ethanol (10 mM) at 37° C. for 30 min. The transesterification product EPH and hydrolytic metabolite RA were analyzed utilizing established HPLC assays. […] Data are expressed as mean±SEM of three independent experiments.
An In Vitro Investigation of the Transesterification Potential of Isopropylphenidate versus Methylphenidate in the Presence of Ethanol. The s9 fraction of hCES1-transfected cells, d1-MPH), dl-IPH, and ethanol working solution were prepared in DPBS containing 20 mM HEPES, pH7.4. The reaction was initiated by mixing 200 μl of s9 fraction, 100 μl of substrates (MPH or IPH) and 100 μl of ethanol. The final concentrations of s9 fraction protein, MPH, IPH, and ethanol were 2 mg/ml, 1 mM, 1 mM, and 10 mM, respectively. After incubation at 37° C. for 1 h, the reaction was terminated by adding a four-fold concentration of ice-cold methanol. The samples were then centrifuged at 16,000 g for 5 min, and the resulting supernatant was subjected to HPLC analysis to assess each for the formation and/or concentration of the hydrolytic product of both MPH and IPH, and common metabolite RA. Additionally, the samples were assayed for the presence of the transesterification metabolite ethylphenidate (EPH). Further, the s9 fraction prepared from the vector-transfected cells was included in this study as a control for any non-enzymatic hydrolysis which might occur. The hCES1 mediated MPH and IPH hydrolysis was estimated by deducting the amounts of RA produced in the vector s9 samples from the RA formation observed in the hCES1 s9 samples.

T2 sequence (P23975 whole entry): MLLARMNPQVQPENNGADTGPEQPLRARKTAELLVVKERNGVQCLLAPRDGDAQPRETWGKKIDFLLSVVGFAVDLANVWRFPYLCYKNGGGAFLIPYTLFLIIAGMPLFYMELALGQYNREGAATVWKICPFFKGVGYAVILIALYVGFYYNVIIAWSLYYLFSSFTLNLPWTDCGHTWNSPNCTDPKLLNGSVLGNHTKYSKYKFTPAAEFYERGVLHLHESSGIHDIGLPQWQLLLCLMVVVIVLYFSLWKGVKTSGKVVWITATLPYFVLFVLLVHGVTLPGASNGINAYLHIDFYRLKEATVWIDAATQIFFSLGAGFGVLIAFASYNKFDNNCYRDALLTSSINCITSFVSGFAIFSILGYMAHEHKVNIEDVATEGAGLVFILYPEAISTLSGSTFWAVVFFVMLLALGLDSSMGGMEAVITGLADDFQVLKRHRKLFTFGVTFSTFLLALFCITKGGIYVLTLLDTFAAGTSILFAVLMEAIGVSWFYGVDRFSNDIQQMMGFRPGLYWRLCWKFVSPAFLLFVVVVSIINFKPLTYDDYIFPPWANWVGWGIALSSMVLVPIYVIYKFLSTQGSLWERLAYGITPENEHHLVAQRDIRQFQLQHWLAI
T1 sequence (Q01959 whole entry): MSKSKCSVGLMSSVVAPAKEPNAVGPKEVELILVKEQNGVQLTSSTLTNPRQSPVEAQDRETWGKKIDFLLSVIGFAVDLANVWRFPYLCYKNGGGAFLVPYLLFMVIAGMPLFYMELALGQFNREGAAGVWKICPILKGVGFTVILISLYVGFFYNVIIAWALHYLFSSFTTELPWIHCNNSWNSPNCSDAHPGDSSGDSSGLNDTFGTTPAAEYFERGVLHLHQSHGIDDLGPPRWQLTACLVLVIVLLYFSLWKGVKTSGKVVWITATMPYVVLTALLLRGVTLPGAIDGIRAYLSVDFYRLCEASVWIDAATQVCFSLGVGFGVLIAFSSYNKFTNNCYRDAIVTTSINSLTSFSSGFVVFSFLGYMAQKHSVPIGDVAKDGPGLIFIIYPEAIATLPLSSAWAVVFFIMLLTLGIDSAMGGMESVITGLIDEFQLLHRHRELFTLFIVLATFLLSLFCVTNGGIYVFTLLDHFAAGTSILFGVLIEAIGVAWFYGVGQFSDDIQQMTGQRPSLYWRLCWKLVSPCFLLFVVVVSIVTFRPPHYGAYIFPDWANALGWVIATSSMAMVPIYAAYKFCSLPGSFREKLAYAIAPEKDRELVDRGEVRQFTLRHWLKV

SMILES | % inhibition of control specific binding, DAT (h) ([1]; 10 μM, ligand [3H]GBR-12935, transfected CHO cells) [%] | NET affinity of IPH relative to MPH ([2]; 10 μM, inhibition of specific control binding) | % inhibition of control specific binding, NET (h) ([2]; 10 μM, ligand [3H]nisoxetine, transfected CHO cells, HCl salts) [%] | % inhibition of control specific binding; [3H]NE incorporation into synaptosomes ([3]; 10 μM) [%] | velocity of hCES1-mediated transesterification to EPH (hCES1; 1 mM substrate, 10 mM ethanol, 2 mg/ml s9 protein, 37° C.) [pmole/min/mg protein] | effect of ethanol on formation of the hydrolytic product RA (hCES1; 10 mM ethanol) | EPH formation with ethanol when hCES1 was not present (hCES1) | inhibition at 10 µM ([1]; ligand [3H]GBR-12935, transfected CHO cells, read-out: % inhibition of control specific binding, DAT (h)) [%] | inhibition at 10 µM ([2]; ligand [3H]nisoxetine, transfected CHO cells, HCl salts, read-out: % inhibition of control specific binding, NET (h)) [%] | inhibition at 10 µM ([3]; read-out: % inhibition of control specific binding, [3H]NE incorporation into synaptosomes) [%]
CC(C)OC(=O)C(c1ccccc1)C1CCCCN1 (racemic) [IPH, dl-threo-α-phenyl-2-piperidineacetic acid isopropyl ester] | 97 | one-third | 27 | 62 | 47.5±3.3 | significantly decreased | no EPH formation was observed | – | – | –
COC(=O)C(c1ccccc1)C1CCCCN1 (racemic) [MPH, dl-threo-methylphenidate, reference compound] | – | – | – | – | – | significantly decreased | no EPH formation was observed | 101 | 88 | 117
